Measured values: US5861424A, “Composition and method for treating cancer” (priority 1995, dated 1999)
Like-named read-outs stand apart in the source and are kept apart here.

Experiments:
[1] = tested on: normal monkey kidney epithelial cell line CV-1; assay: Colony formation assay, normal monkey kidney epithelial cells CV-1; settings: for IC50: Primates, Epithelial cell; for CV-1 (IC50): Table III;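 as to all read-outs here: colonies visualized by crystal violet staining, incubation at 37 °C, IC50 relative to untreated wells given culture medium alone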
[2] = tested on: human colon carcinoma cell line CX-1; assay: Colony formation assay, human colon carcinoma CX-1; format: cell-based; settings: for IC50: Homo sapiens, Colon carcinoma cell; for IC50 / CX-1 (IC50): 24 h treatment, colony count after 7 to 10 days; for Selectivity (ratio of IC50 for CV-1 and IC50 for CX-1): CV-1/CX-1
[3] = read-out: CV-1 (IC50), Table III, 24 h treatment, colony count after 7 to 10 days
[4] = Table III, read-out: CX-1 (IC50)
[5] = read-out: CX-1 (IC50), Table III
[6] = 24 h treatment, colony count after 7 to 10 days

CCN1C(=CC=c2sc(=Cc3sc4c5ccccc5ccc4[n+]3CC)n(CC)c2=O)Sc2c1ccc1ccccc21 [Compound 7]
IC50 [1, 3]: 4 µg/mL | IC50 [2, 4]: 0.04 µg/mL | Selectivity (ratio of IC50 for CV-1 and IC50 for CX-1) ([2]; Table III): 100

CCN1C(=CC=c2sc(=Cc3sc4ccc5ccccc5c4[n+]3CC)n(CC)c2=O)Sc2c1ccc1ccccc21 [Compound 20]
IC50 [1, 3]: 6 µg/mL | IC50 [2, 5]: 0.03 µg/mL | Selectivity (ratio of IC50 for CV-1 and IC50 for CX-1) ([2]; Table III): 200

CCN1C(=CC=c2sc(=Cc3sc4ccc5ccccc5c4[n+]3CC)n(CC)c2=O)Sc2ccc3ccccc3c21 [Compound 30]
IC50 [1, 3]: 5 µg/mL | IC50 [2, 4]: 0.025 µg/mL

CCN1C(=CC=c2sc(=Cc3sc4c5ccccc5ccc4[n+]3CC)n(CCOC(C)=O)c2=O)Sc2ccc3ccccc3c21 [Compound 67]
IC50 ([1]; read-out: CV-1 (IC50)): 10 µg/mL | IC50 [2, 4]: 0.05 µg/mL | Selectivity (ratio of IC50 for CV-1 and IC50 for CX-1) ([2]; Table III): 200

CCN1C(=CC=c2sc(=Cc3sc4c5ccccc5ccc4[n+]3CC)n(-c3ccccc3)c2=O)Sc2ccc3ccccc3c21 [Compound 68]
IC50 [1, 3]: 5 µg/mL | Selectivity (ratio of IC50 for CV-1 and IC50 for CX-1) ([2]; Table III): 100

CCN1C(=CC=c2sc(=Cc3oc4ccc5ccccc5c4[n+]3CC)n(CC)c2=O)Sc2ccc3ccccc3c21 [Compound 70]
IC50 ([1]; read-out: CV-1 (IC50)): 10 µg/mL | IC50 [2, 4]: 0.04 µg/mL | Selectivity (ratio of IC50 for CV-1 and IC50 for CX-1) ([2]; Table III): 250

CCN1C(=CC=c2sc(=Cc3[se]c4ccccc4[n+]3CC)n(CC)c2=O)Sc2ccc3ccccc3c21 [Compound 74]
IC50 ([1]; read-out: CV-1 (IC50)): 10 µg/mL | IC50 [2, 5]: 0.1 µg/mL | Selectivity (ratio of IC50 for CV-1 and IC50 for CX-1) ([2]; Table III): 100

CCN1C(C)=CSC1=CC=c1sc(=Cc2sc3ccccc3[n+]2CC)n(CC)c1=O [Compound 92]
CV-1 (IC50) [1, 6]: 9 µg/mL | IC50 [2, 4]: 0.05 µg/mL | Selectivity (ratio of IC50 for CV-1 and IC50 for CX-1) ([2]; Table III): 180

CCN1CCSC1=CC=c1sc(=Cc2sc3cc(OC)c(OC)cc3[n+]2CC)n(CC)c1=O [Compound 134]
IC50 ([1]; read-out: CV-1 (IC50)): 10 µg/mL | IC50 [2, 5]: 0.1 µg/mL | Selectivity (ratio of IC50 for CV-1 and IC50 for CX-1) ([2]; Table III): 100

CCN1CCSC1=CC=c1sc(=Cc2sc3ccccc3[n+]2CC)n(CC)c1=O [Compound 137]
IC50 [1, 3]: 5 µg/mL | IC50 [2, 4]: 0.05 µg/mL | Selectivity (ratio of IC50 for CV-1 and IC50 for CX-1) ([2]; Table III): 100

CCN1CCSC1=CC=c1sc(=Cc2sc3c4ccccc4ccc3[n+]2CC)n(CC)c1=O [Compound 138]
CV-1 (IC50) [1, 6]: 0.8 µg/mL | IC50 [2, 4]: 0.005 µg/mL | Selectivity (ratio of IC50 for CV-1 and IC50 for CX-1) ([2]; Table III): 160

CCN1CCSC1=CC=c1sc(=CC2=[N+](CC)CCS2)n(CC)c1=O [Compound 142]
IC50 [1, 3]: 20 µg/mL | IC50 [2, 5]: 0.1 µg/mL | Selectivity (ratio of IC50 for CV-1 and IC50 for CX-1) ([2]; Table III): 200

CCN1CCSC1=CC=c1sc(=Cc2oc3ccc4ccccc4c3[n+]2CC)n(CC)c1=O [Compound 143]
IC50 [1, 3]: 5 µg/mL | IC50 [2, 4]: 0.05 µg/mL | Selectivity (ratio of IC50 for CV-1 and IC50 for CX-1) ([2]; Table III): 100

CCN1CCSC1=CC=c1sc(=Cc2sc3c4ccccc4ccc3[n+]2CC)n(CC)c1=O [Compound 151]
CV-1 (IC50) [1, 6]: 20 µg/mL | CX-1 (IC50) ([2]; Table III): 0.08 µg/mL | Selectivity (ratio of IC50 for CV-1 and IC50 for CX-1) ([2]; Table III): 250

CCN1CCSC1=CC=c1sc(=Cc2sc3cccc(OC)c3[n+]2CC)n(CC)c1=O [Compound 154]
IC50 [1, 3]: 5 µg/mL | IC50 [2, 4]: 0.04 µg/mL | Selectivity (ratio of IC50 for CV-1 and IC50 for CX-1) ([2]; Table III): 125

CCN1CCSC1=CC=c1sc(=Cc2[se]c3ccccc3[n+]2CC)n(CC)c1=O [Compound 157]
IC50 ([1]; read-out: CV-1 (IC50)): 8 µg/mL | IC50 [2, 5]: 0.08 µg/mL | Selectivity (ratio of IC50 for CV-1 and IC50 for CX-1) ([2]; Table III): 100

CCn1c(=Cc2sc3cc(C)ccc3[n+]2CC)sc(=CC=C2N(C)c3ccccc3C2(C)C)c1=O [Compound 207]
IC50 [1, 3]: 1.5 µg/mL | IC50 [2, 4]: 0.01 µg/mL | Selectivity (ratio of IC50 for CV-1 and IC50 for CX-1) ([2]; Table III): 150

CCOc1cc2c(cc1C)sc(C=c1sc(=CC=C3N(C)c4ccccc4C3(C)C)c(=O)n1CC)[n+]2CC [Compound 209]
IC50 [1, 3]: 1 µg/mL | IC50 [2, 4]: 0.01 µg/mL | Selectivity (ratio of IC50 for CV-1 and IC50 for CX-1) ([2]; Table III): 100

CCN1C(=CC=c2sc(=Cc3cc[n+](CC)c4ccccc34)n(CC)c2=O)C=Cc2cc(Cl)ccc21 [Compound 396]
CX-1 (IC50) ([2]; Table III): 0.08 µg/mL | Selectivity (ratio of IC50 for CV-1 and IC50 for CX-1) ([2]; Table III): 250
